pIC50: −log10 of the molar value.
How the values were obtained:
Assay type in all cases: biochemical
[1] = molecular target: T1, PDE1 partially purified from bovine heart (Bos taurus, UniProt P14100); assay: PDE1 enzyme inhibition assay ([3H]cAMP hydrolysis, scintillation counting)
T1 construct: PDE1 partially purified from bovine heart was used; from tissue; host or cells: bovine heart
From the text: (§1) In this example, a racemic mixture of monochloroflosequinan and the sulfone derivative of monochloroflosequinan were independently subjected to biochemical enzyme assays to determine their respective percent inhibition of a variety of phosphodiesterases (PDE1-PDE6). The methods used have been adapted from those described in the scientific literature, see Hidaka and Asano “Human blood platelet 3′:5′ cyclic nucleotide phosphodiesterase. Isolation of low-Km and high Km phosphodiesterase.” Biochem. Biophys. Acta 429:485 (1976); Nicholoson et at. “Differential modulation of tissue function and therapeutic potential of selective inhibitors of cyclic nucleotide phosphodiesterase isoenzymes” Trends Pharmacol. Sci. 12:19 (1991); Cortijo et al. “Investigation into the role of phosphodiesterase IV in bronchorelaxation, including studies with hyman bronchus.” Br. J. Pharmacol. 108:562 (1993); Baehr et al. “Isolation and characterization of cGMP phosphodiesterase from bovine rod outer segments.” J. Biol. Chem. 254:11669 (1979) and Gillespie and Beavo “Inhibition and stimulation of photoreceptor phosphodiesterase by dipyridamole and M&B 22,948” Molecular Pharm. 36:773 (1989). […]
PDE1: PDE1 partially purified from bovine heart was used. […] Unhydrolyzed cAMP was bound to AGI-X2 resin, and the remaining [^3H]adenosine in the aqueous phase was quantitated by scintillation counting.

[2] = molecular target: T2, PDE3 partially purified from human platelets (Homo sapiens, UniProt Q14432); assay: PDE3 enzyme inhibition assay ([3H]cAMP hydrolysis, scintillation counting); conditions: for pIC50: varying concentrations 300-1 μM
T2 construct: PDE3 partially purified from human platelets was used; from tissue; host or cells: human platelets
T2 sequence (Q14432 whole entry): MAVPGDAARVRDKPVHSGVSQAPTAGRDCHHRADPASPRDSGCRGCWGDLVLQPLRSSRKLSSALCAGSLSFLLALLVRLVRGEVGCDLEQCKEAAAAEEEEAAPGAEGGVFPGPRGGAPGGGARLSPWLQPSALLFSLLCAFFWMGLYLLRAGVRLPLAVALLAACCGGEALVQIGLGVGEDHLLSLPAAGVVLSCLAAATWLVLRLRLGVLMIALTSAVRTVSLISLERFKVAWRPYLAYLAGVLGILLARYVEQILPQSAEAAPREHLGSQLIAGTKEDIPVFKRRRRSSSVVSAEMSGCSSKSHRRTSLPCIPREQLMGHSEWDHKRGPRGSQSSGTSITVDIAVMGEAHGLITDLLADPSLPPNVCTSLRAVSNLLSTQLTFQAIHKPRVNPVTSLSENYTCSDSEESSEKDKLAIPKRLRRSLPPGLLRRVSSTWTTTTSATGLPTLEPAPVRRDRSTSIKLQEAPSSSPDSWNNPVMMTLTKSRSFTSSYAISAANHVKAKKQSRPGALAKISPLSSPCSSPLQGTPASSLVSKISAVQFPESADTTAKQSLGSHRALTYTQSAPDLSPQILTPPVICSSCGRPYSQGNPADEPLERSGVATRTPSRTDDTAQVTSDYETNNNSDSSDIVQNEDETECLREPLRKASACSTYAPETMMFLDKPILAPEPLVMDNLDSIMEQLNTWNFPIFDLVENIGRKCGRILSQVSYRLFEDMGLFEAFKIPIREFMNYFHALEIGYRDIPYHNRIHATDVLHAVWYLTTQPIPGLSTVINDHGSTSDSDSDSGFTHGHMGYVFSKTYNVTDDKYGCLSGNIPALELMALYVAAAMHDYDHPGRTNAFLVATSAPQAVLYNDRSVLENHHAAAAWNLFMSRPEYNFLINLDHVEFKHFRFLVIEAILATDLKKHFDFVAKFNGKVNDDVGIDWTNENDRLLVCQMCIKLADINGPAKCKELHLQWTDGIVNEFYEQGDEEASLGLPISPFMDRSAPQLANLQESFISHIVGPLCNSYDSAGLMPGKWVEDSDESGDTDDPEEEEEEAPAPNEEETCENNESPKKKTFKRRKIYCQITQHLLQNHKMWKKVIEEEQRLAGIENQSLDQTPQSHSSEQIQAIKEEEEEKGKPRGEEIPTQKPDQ
From the text: In this example, a racemic mixture of monochloroflosequinan and the sulfone derivative of monochloroflosequinan were independently subjected to biochemical enzyme assays to determine their respective percent inhibition of a variety of phosphodiesterases (PDE1-PDE6). The methods used have been adapted from those described in the scientific literature, see Hidaka and Asano “Human blood platelet 3′:5′ cyclic nucleotide phosphodiesterase. Isolation of low-Km and high Km phosphodiesterase.” Biochem. Biophys. Acta 429:485 (1976); Nicholoson et at. “Differential modulation of tissue function and therapeutic potential of selective inhibitors of cyclic nucleotide phosphodiesterase isoenzymes” Trends Pharmacol. Sci. 12:19 (1991); Cortijo et al. “Investigation into the role of phosphodiesterase IV in bronchorelaxation, including studies with hyman bronchus.” Br. J. Pharmacol. 108:562 (1993); Baehr et al. “Isolation and characterization of cGMP phosphodiesterase from bovine rod outer segments.” J. Biol. Chem. 254:11669 (1979) and Gillespie and Beavo “Inhibition and stimulation of photoreceptor phosphodiesterase by dipyridamole and M&B 22,948” Molecular Pharm. 36:773 (1989). A brief summary of the conditions for each enzyme assay is provided below:
PDE3: PDE3 partially purified from human platelets was used. The compounds were independently incubated with 13 μg PDE3 enzyme and 1.01 μM [^3H]cAMP+cAMP in Tris buffer pH 7.5 for 20 minutes at either 25° C. or 30° C. The reaction was terminated by boiling for 2 minutes, and the resulting AMP was converted to adenosine by addition of 10 mg/ml snake venom nucleotidase and further incubation at 30° C. for 10 minutes. Unhydrolyzed cAMP was bound to AGI-X2 resin, and the remaining [^3H]adenosine in the aqueous phase was quantitated by scintillation counting.

[3] = molecular target: T3, PDE2 partially purified from human platelets (Homo sapiens, UniProt O00408); assay: PDE2 enzyme inhibition assay ([3H]cAMP hydrolysis, scintillation counting)
T3 construct: PDE2 partially purified from human platelets was used; from tissue; host or cells: human platelets
T3 sequence (O00408 whole entry): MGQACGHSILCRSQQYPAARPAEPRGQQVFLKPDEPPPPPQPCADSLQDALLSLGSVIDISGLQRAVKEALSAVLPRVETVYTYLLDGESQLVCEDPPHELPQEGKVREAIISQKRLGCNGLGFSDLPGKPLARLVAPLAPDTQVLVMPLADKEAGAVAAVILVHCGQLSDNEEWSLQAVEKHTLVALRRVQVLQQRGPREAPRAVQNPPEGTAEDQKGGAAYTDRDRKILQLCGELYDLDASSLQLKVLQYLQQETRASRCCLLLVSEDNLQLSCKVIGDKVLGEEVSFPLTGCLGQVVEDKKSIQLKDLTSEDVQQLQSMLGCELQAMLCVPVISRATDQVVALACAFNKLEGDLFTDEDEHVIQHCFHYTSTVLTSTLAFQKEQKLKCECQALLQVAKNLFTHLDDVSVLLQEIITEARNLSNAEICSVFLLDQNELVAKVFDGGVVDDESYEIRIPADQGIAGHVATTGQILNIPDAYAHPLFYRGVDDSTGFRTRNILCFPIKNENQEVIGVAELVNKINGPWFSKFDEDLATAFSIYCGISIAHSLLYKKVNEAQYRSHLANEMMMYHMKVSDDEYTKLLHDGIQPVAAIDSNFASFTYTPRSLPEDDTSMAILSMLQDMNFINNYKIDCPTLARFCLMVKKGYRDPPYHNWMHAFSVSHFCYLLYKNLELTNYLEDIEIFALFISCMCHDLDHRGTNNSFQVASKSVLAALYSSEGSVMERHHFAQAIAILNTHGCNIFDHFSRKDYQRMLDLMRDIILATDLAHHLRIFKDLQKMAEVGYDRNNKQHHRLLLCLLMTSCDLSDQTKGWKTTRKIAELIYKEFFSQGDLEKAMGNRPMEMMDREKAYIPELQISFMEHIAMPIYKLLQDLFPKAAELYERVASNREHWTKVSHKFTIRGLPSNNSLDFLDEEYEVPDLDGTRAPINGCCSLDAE
From the text: as §1
PDE2: PDE2 partially purified from human platelets was used. […] Unhydrolyzed cAMP was bound to AGI-X2 resin, and the remaining [^3H]adenosine in the aqueous phase was quantitated by scintillation counting.

[4] = 100 μM compound, 30° C., 1% DMSO vehicle
[5] = varying concentrations 300-1 μM

T1 sequence (P14100 1-514 isoform P14100-2): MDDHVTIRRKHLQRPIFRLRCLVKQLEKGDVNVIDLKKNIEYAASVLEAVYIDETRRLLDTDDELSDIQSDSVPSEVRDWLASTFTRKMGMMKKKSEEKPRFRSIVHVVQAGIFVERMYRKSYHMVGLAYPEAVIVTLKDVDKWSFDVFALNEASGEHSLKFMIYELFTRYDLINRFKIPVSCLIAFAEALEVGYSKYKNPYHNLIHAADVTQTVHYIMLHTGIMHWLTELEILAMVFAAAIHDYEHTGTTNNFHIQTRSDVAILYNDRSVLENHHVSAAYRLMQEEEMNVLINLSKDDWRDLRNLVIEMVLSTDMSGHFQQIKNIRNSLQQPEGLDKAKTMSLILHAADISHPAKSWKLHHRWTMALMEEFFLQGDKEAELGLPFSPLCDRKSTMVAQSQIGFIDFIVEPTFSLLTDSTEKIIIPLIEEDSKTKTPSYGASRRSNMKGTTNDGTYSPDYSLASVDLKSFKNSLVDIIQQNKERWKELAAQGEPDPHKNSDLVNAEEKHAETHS

SMILES	inhibition of PDE1 [1, 4]	pIC50 [1, 5]	inhibition of PDE3 [2, 4]	pIC50 [2]	inhibition of PDE2 [3, 4]	pIC50 [3, 5]	inhibition at 100 µM ([2]; 100 μM compound, 25° C., 1% DMSO vehicle) [%]
Cn1cc([S+]([O-])CCl)c(=O)c2ccc(F)cc21 (racemic) [monochloroflosequinan, 3-chloromethylsulfinyl-7-fluoro-1-methyl-4-quinolone]	Significant inhibition	4.18	Significant inhibition	4.55	Significant inhibition	< 3.52	
Cn1cc(S(=O)(=O)CCl)c(=O)c2ccc(F)cc21 [monochloroflosequinan sulfone, 3-chloromethylsulfonyl-7-fluoro-1-methyl-4-quinolone]				4.02			> 50

Reference: patent US6730790B2, “Chlorinated heterocyclic compounds and methods of synthesis” (R.T. Alamo Ventures I. LLC, priority 2002, dated 2004)
